Source: PubChem BioAssay AID857 (Vanderbilt High Throughput Screening Facility, 2007)
The source made the active and inactive calls.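 Rule for the calls: active = a full or partial dose-response curve in at least two of three replicate runs; inactive = the rest.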

What follows are compounds tested against D(1B) dopamine receptor (Homo sapiens) (UniProt P21918) (assay: D5 receptor allosteric modulators, concentration-response – cell-based, HEK293, CRE-luciferase, luminescence, EC30 dopamine, selectivity assay for D1 allosteric modulator project, dose response (AID 857);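 note: HEK 293 cells expressing human D5 with a CRE-driven luciferase reporter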).
D(1B) dopamine receptor (Homo sapiens), sequence (P21918 whole entry, looked up): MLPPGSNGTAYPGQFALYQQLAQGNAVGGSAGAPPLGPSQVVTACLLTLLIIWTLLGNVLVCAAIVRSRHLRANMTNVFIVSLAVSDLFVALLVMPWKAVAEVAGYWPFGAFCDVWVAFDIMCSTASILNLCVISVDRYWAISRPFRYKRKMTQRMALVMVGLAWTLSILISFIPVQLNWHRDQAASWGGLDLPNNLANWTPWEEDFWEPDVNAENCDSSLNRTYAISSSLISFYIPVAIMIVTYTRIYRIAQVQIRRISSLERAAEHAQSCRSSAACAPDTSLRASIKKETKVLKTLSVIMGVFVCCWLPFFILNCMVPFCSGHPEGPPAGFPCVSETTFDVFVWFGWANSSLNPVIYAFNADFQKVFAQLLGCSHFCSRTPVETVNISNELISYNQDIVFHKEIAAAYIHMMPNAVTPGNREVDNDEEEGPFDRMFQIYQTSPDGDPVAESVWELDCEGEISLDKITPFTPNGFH

SMILES	outcome	EC50
COc1ccc(-c2noc(-c3ccco3)n2)cc1OC	inactive	–
Cc1sc2ncnc(SCC(=O)N3CCCC3)c2c1C	inactive	–
CCSc1nc2c(c(=O)n1CC)SC(C)C2 (configuration not stated)	inactive	–
Cc1cc(N)n(-c2nc(-c3cccnc3)nc3ccccc23)n1	inactive	–
C=CCNC(=O)c1ccccc1NC(=O)c1ccccc1	inactive	–
CCOC(=O)c1nn(-c2ccc(OC)cc2)c(=O)c2c(N)scc12	inactive	–
COc1ccc(Cn2nnc3c(=O)[nH]c(C4CCCN(C(=O)c5ccccc5)C4)nc32)cc1 (configuration not stated)	inactive	–
COc1ccc(-c2csc3nc(C)n(-n4cccc4)c(=O)c23)cc1OC	inactive	–
CCc1ccc2oc(=O)cc(CN3CCOCC3)c2c1	inactive	–
CCC(=O)n1nc(-c2cccnc2)nc1NCc1ccc(OC)cc1	inactive	–
CC(=O)C1=C(C)NC(SCC(=O)c2ccc(F)cc2)=C(C#N)C1c1ccco1 (configuration not stated)	inactive	–
CC(C)C1C(C#N)=C(N)Oc2n[nH]c(-c3ccccc3)c21 (configuration not stated)	inactive	–
CCOC(=O)NCCc1ccc(OC)cc1	inactive	–
Cc1cc(=O)n(CC=C(Cl)Cl)c2ccccc12	inactive	–
CCC(=O)NC(=Nc1nc2ccccc2s1)NC(=O)CC	–	1.9 µM
Brc1ccc(-c2nn3c(Cc4ccccc4)nnc3s2)o1	inactive	–
CCCc1cc(C(=O)Nc2sc(C(C)=O)c(C)c2C(=O)OCC)no1	inactive	–
CCCn1c(=O)c2ccccc2n2c(SCc3nc4ccccc4s3)nnc12	inactive	–
COCCNc1oc(-c2ccc(C)cc2)nc1C#N	inactive	–
COc1ccc(C2CC(c3ccc(Cl)cc3Cl)Nc3nc(N)nn32)cc1 (configuration not stated)	inactive	–
CC(=O)Oc1c(Cl)c(N2CCOCC2)c(OC(C)=O)c2ccccc12	inactive	–
Cc1nnc(SCCn2c(N3CCCC(C)C3)nc3c2c(=O)[nH]c(=O)n3C)s1 (configuration not stated)	inactive	–
N#CCCN1CCN(S(=O)(=O)c2ccc(S(=O)(=O)NC3CCCCC3)cc2)CC1	inactive	–

SMILES	outcome	EC50
CCOC(=O)C1CCCN(c2nc3ccccc3nc2C(C#N)C(=O)OCC)C1 (configuration not stated)	inactive	–
N#CC1=C(N)N(c2ccccc2)C2=C(C(=O)CCC2)C1c1ccsc1 (configuration not stated)	inactive	–
CCOc1ccc(-c2noc(COC)n2)cc1OC	inactive	–
COc1ccc(OC)c(C2=NOC(C(=O)Nc3cccc(C(C)=O)c3)C2)c1 (configuration not stated)	inactive	–
O=C1CSc2ccccc2N1Cc1ccccc1F	inactive	–
C(=N\C(/N=C/c1ccco1)c1ccco1)/c1ccco1	inactive	–
CCOC(=O)c1ccc(N2CN=C3SCC(=O)N3C2)cc1	inactive	–
Fc1ccc(-c2cc(C(F)(F)F)nc(-n3cncn3)n2)cc1	inactive	–
CCOC(=O)c1[nH]cnc1C(=O)Nc1ccccn1	inactive	–
COc1ccccc1-n1c(=O)[nH]c2c(C(N)=O)nc(CC(C)C)nc21	inactive	–
Fc1cc(Br)ccc1Nc1nc2ccccc2n2nnnc12	inactive	–
COC(=O)c1cccc(N2C(=O)C(Cl)=C(N3CCOCC3)C2=O)c1	inactive	–
CCc1nc2ccccc2c(C(=O)OCC(=O)NCc2ccco2)c1C	inactive	–
COC(=O)c1c(-c2ccc(F)cc2)csc1NC(=O)c1ccco1	inactive	–
C/C=C/Cn1c(SCCCc2ccccc2)nc2c1c(=O)[nH]c(=O)n2C	inactive	–
CC(C)C1C2=C(CC(C)(C)CC2=O)ON1c1ccccc1 (configuration not stated)	inactive	–
CCOC(=O)C(C)Oc1cccc2c(=O)n(CC(=O)NCc3ccco3)ccc12 (configuration not stated)	inactive	–
Cc1nc(-c2ccc(S(=O)(=O)N3CCCCCC3)cc2)cs1	inactive	–
CCCc1nc2sc3c(SCC(=O)NCc4ccco4)ncnc3c2c2c1CCC2	inactive	–
COc1ccc(-c2noc(COc3ccc4ccccc4c3Br)n2)cc1OC	inactive	–
COc1ccc(S(=O)(=O)Nc2ccc3c(c2)OCO3)cc1OC	inactive	–
CCSc1nc(-c2ccco2)ccc1C#N	inactive	–
N#Cc1c(N)nc(-c2ccccc2)nc1-c1ccccc1	inactive	–

SMILES	outcome	EC50
COc1ccc(OC)c(N2C(=O)C(Cl)=C(N3CCCCC3)C2=O)c1	inactive	–
CCN1C(=O)c2cccc3c(S(=O)(=O)Nc4ccccn4)ccc1c23	inactive	–
COc1ccc(C2CC(c3cc(OC)ccc3OC)n3nnnc3N2)cc1 (configuration not stated)	inactive	–
COc1ccc(CN(C2CCCC2)S(=O)(=O)c2ccc(-n3cnnn3)cc2)cc1OC	inactive	–
Cc1ccc(CCNS(=O)(=O)c2cnc[nH]2)cc1	inactive	–
CCC(=O)Nc1nc2c(OC)ccc(OC)c2s1	inactive	–
O=S1(=O)N=C(N2CCc3ccccc3C2)c2ccccc21	inactive	–
CCc1nc2sc3ccccc3c(=O)c2c(=O)n1Cc1ccco1	inactive	–
CCCCNC(=O)c1ccc2nc(-c3ccco3)c(-c3ccco3)nc2c1	inactive	–
Cc1ccc(OCCN2C(=O)OC(C)(C)C2(C)O)cc1 (configuration not stated)	inactive	–
COC(=O)c1c(NC(=O)Cc2cccs2)sc2c1CCC(C)C2 (configuration not stated)	inactive	–
CCn1c(SCC(=O)Nc2ccccc2N2CCCCC2)nc2c1c(=O)n(C)c(=O)n2C	inactive	–
CCC(=O)N1CCc2cc(S(=O)(=O)NCCC(=O)NC3CCCc4ccccc43)ccc21 (configuration not stated)	inactive	–
Cc1ccc(CNc2nc3ccccc3n3nnnc23)cc1	inactive	–
COc1ccc(-c2nnc(-c3ccc(Br)o3)o2)cc1OC	inactive	–
Cc1ccc(-c2nc3ncccn3c2NC(=O)C2CC2)cc1	inactive	–
c1ccc(Cn2nnc3c(N4CCc5ccccc54)ncnc32)cc1	inactive	–
COC(=O)c1cccc(S(=O)(=O)N2CCC(NC(=O)NC34CC5CC(CC(C5)C3)C4)CC2)c1	inactive	–
O=C1OCCC1Sc1ncnc2sc3c(c12)CCC3 (configuration not stated)	inactive	–
CS(=O)(=O)c1sc2nc(-c3cccs3)cc(-c3ccccc3)c2c1N	inactive	–
O=C(Nc1ncnc2sc3c(c12)CCCCC3)c1ccco1	inactive	–
CCOC(=O)c1cc2c(=O)n3ccccc3nc2n(CCCOC)c1=NC(=O)C(C)(C)C	inactive	–
O=C1C(Cl)=C(NCC2CCCO2)C(=O)N1Cc1ccccc1 (configuration not stated)	inactive	–

SMILES	outcome	EC50
C/C(CCc1oc2ccccc2c1-c1ccc(C)o1)=N/O	inactive	–
CC1(C)CN=C(Nc2nc3ccccc3s2)S1	inactive	–
CC(C)OC(=O)CSc1nnc(-c2cnccn2)n1-c1ccccc1	inactive	–
c1csc(-c2nn3c(Cn4nnc5ccccc54)nnc3s2)c1	inactive	–
COc1ccc2nc(SCC(=O)N3CCCCCC3)c(C#N)cc2c1	inactive	–
c1ccc(-c2nc3nonc3nc2-c2ccccc2)cc1	inactive	–
CC1(C)Cc2c(C#N)c(NC3CCCCC3)nc(-c3ccco3)c2CO1	inactive	–
Cc1nc2ccc(CCO)cc2s1	inactive	–
Cc1ccc(S(=O)(=O)N2CCN(C(=O)COC(=O)c3cc(C)oc3C)CC2)cc1	inactive	–
CCOC(=O)Cc1[nH]nc2c1C(c1cccc(OC)c1OC)C(C#N)=C(N)O2 (configuration not stated)	inactive	–
CCCCCn1c(NCc2ccco2)nc2ccccc21	inactive	–
CCOC(=O)N1CCC(NC(=O)c2cccc3c2C(=O)N(Cc2cccnc2)C3)CC1	inactive	–
CCOc1ncccc1C(=O)OCc1nnc(-c2ccccc2)o1	inactive	–
COC(=O)c1sc2ccccc2c1C(=O)OC	inactive	–
CCNc1nc(NC(C)(C)C)nc(N(CC)n2cnnc2)n1	inactive	–
COc1cc(OC)cc(C(=O)Nn2cc(C(=O)N3CCN(C)CC3)c3ccccc3c2=O)c1	inactive	–
Cc1nn2c(N3CCCC3)cc(C(C)C)nc2c1-c1ccccc1	inactive	–
CC(C)Cn1c(=O)c2c(c3ccccc31)OC(C)C(=O)N2 (configuration not stated)	inactive	–
CCOC(=O)N1CCN(C(=O)C(C)(C)Oc2ccc(Cl)cc2)CC1	inactive	–
COc1ccc2[nH]c(=O)c(CN(Cc3cccs3)Cc3nnnn3C(C)(C)C)cc2c1	inactive	–
CCCOc1ccccc1NC(=O)c1ccc(N)cc1	inactive	–
COC(=O)c1cc(NC(=O)CSc2nc(C)cc(=O)[nH]2)cc(C(=O)OC)c1	inactive	–
Cc1cc(C)nc(SCC(=O)Nc2ncc3c(n2)CC(C)(C)CC3=O)n1	inactive	–

SMILES	outcome	EC50
COCCNC(=O)c1c(NC(=O)c2ccco2)n(Cc2ccccc2)c2nc3ccccc3nc12	inactive	–
Cc1sc2nc(CN3CCN(S(=O)(=O)c4cccc5nonc45)CC3)[nH]c(=O)c2c1C	inactive	–
Cc1[nH]n(-c2ccccc2)c(=O)c1S(=O)(=O)c1ccccc1	inactive	–
C=CCn1c(SCc2nc3c(c(=O)[nH]c(=O)n3CCCC)n2CCC)nnc1-c1ccccc1	inactive	–
CCOC(=O)C(O)(CCC(O)(C(=O)OCC)C(=O)OCC)C(=O)OCC	inactive	–
CC(C)Sc1nc2c(c(=O)n1C)SC(C)C2 (configuration not stated)	inactive	–
O=C(OCC#CCSc1nnc(-c2ccc(Br)cc2)o1)c1ccco1	inactive	–
C=CCSc1nc2ccccc2c(=O)[nH]1	inactive	–
COc1cccc(N2C(=O)C3ON(c4ccccc4)C(c4cccs4)C3C2=O)c1 (configuration not stated)	inactive	–
Nc1nonc1-n1nnc(C(=O)c2ccccc2)c1-c1ccccc1	inactive	–
N#CCSc1nc2c(sc(=S)n2Cc2ccco2)c(=O)n1-c1ccc(F)cc1	inactive	–
COc1ccccc1-c1nnc2n1N=C(C(C)(C)C)CS2	inactive	–
CCn1ncc(C2=NOC(C(=O)NCc3ccccc3)C2)c1C (configuration not stated)	inactive	–
CCn1c2ccccc2c2nc3ccccc3nc21	inactive	–
C=CCNc1sc(C(=O)C(C)(C)C)c(N)c1C#N	inactive	–
COc1ccc(OC)c(C(=O)COC(=O)C2CC3CCCC(C2)C3=O)c1 (configuration not stated)	inactive	–
Cn1c2c(c3ccccc31)CC/C2=N\O	inactive	–
CC(C)Cn1c(=O)c(C(=O)Nc2cnccn2)c(O)c2ccccc21	inactive	–
Cc1csc2c(C#N)c(=O)c3c(n12)CCC3	inactive	–
CCOC(=O)CCSc1nc(C)c2ccccc2n1	inactive	–
